Laboratory results published in US10927418B2, “Assays and methods for selecting a treatment regimen for a subject with leukemia” (CELATOR PHARMACEUTICALS, INC., priority 2015, dated 2021).

System: ME-1 and MOLM-14 cells
Experiment: CPX-351 uptake after quizartinib pretreatment
Assay type: cell-based
Method: Uptake of CPX-351 was measured by daunorubicin fluorescence as determined by flow cytometry normalized to untreated control. The x-axis in the graphs depicts the uptake of CPX-351 in standard units of fluorescence and the y-axis represents the normalized cell counts. […] It is clear from FIGS. 9A and 9B that as the pretreatment time is extended, the ability of some of the cells to take up CPX-351 is diminished. The results in FIGS. 9C and 9D are composites of the various timepoints up to 24 hours.

SMILES: CC(C)(C)c1cc(NC(=O)Nc2ccc(-c3cn4c(n3)sc3cc(OCCN5CCOCC5)ccc34)cc2)no1 [quizartinib]
- ability of cells to take up CPX-351 as quizartinib pretreatment time is extended (10 nM quizartinib for 0, 2, 8, 16 and 24 hours, then CPX-351 for 2 hours): diminished
- total population of cells exhibiting decreased daunorubicin fluorescence (pretreatment with quizartinib for 16 hours): approximately 50%
